Patent publication EP0642343B1, “Acridine carboxamides for the treatment of cancer” (XENOVA LIMITED, priority 1992, dated 1993)
Where two headings read alike, the source gives them in different places.

Key:
[1] = test system: P388 murine leukaemia (P/ACTD); experiment: Sensitivity of multidrug resistant P388 subline in vitro; assay type: cell-based; settings: P-glycoprotein positive multidrug resistant subline
Method: (§1) A multidrug resistant subline of P388 murine leukaemia (P/ACTD) was tested for sensitivity to DACA. This line was cross-resistant to actinomycin D, doxo-rubicin, mitoxantrone, etoposide and vincristine. Its resistance to vincristine was overcome by the presence of verapamil (10 µM). It stained for the presence of P-glycoprotein, consistent with the presence of transport-mediated multidrug resistance.

[2] = test system: P388 murine leukaemia (P/ACTD); settings: in vitro tests; reported by Schneider et al., Eur. J. Cancer Clin. Oncol. 1988; cited from earlier work
[3] = test system: a variety of human and mouse cell lines and in a panel of 60 human cell lines; experiment: Cytotoxicity under continuous drug exposure (growth inhibition); assay type: cell-based; settings: continuous drug exposure over approx. 5 cell doubling times; range over the cell lines
Method: (§2) The latter value compared with 2 µM for the 4-pyridyl-quinoline analogue, 0.76 µM for amsacrine, 0.1 µM for the amsacrine analogue 4'-(9-[4-[N-methylcarboxamido]-5-methyl]-acridinylamino)-methanesulphon-m-anisidide ("CI-921") and 81 µM for etoposide.

[4] = test system: primary human melanoma cultures; experiment: cells; settings: for IC50: Homo sapiens
Method: Acridine carboxamide hydrochloride, synthesised in the Cancer Research Laboratory (Atwell G.J., et al., J.Med. Chem. 1987, 30, 664-669), and amsacrine isethionate, obtained from the Parke-Davis Division of the Warner-Lambert Company, Ann Arbor, USA, were dissolved in 50% v/v aqueous ethanol to make stock solutions of 2-5 mmol/l and stored at -20°C. Other cytotoxic drugs were available either from the NCI repository (Monks A., et al., J. Natl. Cancer Inst. 1991, 83, 757-766) or were obtained as described in Marshall E.S., et al., J. Natl. Cancer Inst. 1992, 84, 341-344 and Finlay, et al., Eur. J. Cancer din. Oncol. 1986, 22, 655-662. Cell lines were from the NCI repository except for MM-96 (Dr. R. Whitehead, Ludwig Institute, Melbourne, Australia), FME (Dr. K.M. Tveit, Norwegian Radium Hospital, Oslo, Norway) and Jurkat normal and multidrug-resistant lines (Dr. K. Snow and Dr. W. Judd, Department of Cellular and Molecular Biology, University of Auckland). Melanoma tissue was obtained from patients with pathologically confirmed metastatic and recurrent melanomas under Auckland Hospital Ethical Committee guidelines. Cells were released by digestion of tissue (at 50 mg.ml^-1) with collagenase (1 mg.ml^-1) and DNAase (50 µg.ml^-1) with continuous stirring at 37°C for 1 to 2 hours, and cultured as previously described (Marshall E.S., et al., J. Natl. Cancer Inst. 1992, 84, 341-344).
Tumour cell lines were cultured in 96-well plates. Growth of NCI cell lines was assessed using sulpho-rhodamine B staining (Skehan P., et al., J. Natl. Cancer Inst. 1990, 82, 1107-1112), that of the leukaemia lines with (4,5-dimethylthiazole-2-yl)-2,5-diphenyltetrazolium (MTT) staining (Mosmann T., J. Immun. Methods 1983, 65, 55-63) and that of the primary human tumour material by ^3H-thymidine incorporation (Marshall E.S., et al., J. Natl. Cancer Inst. 1992, 84, 341-344). Primary tumour material was cultured in 96-well plates in which the wells were coated with agarose to inhibit selectively the growth of normal cells. (Marshall E.S., et al., J. Natl. Cancer Inst. 1992, 84, 341-344). Primary cultures were incubated at 37°C in sealed perspex boxes containing a humidified atmosphere of 5% CO2 and 5% O2 in nitrogen for 7 days. 5-Methyl-[^3H]-thymidine (20 Ci.mmol^-1; 0.04 µCi per well), thymidine and 5-fluorodeoxyuridine (each at final concentrations of 0.5 µM) were added in medium to cultures (20 µl per well) 24 h before terminating the cultures. Cells were aspirated on to glass fibre filters using a multiple automated sample harvester (LKB Wallac OY Beta Harvester). The filter discs were washed for 15 seconds with water, dried, and the amount of tritium retained quantified by liquid scintillation.
IC50 values were defined as in Paull K.D., et al., J. Natl. Cancer Inst. 1989, 81:1088-1092, where growth, as indicated by staining or thymidine incorporation, corresponded to 50% of that of the control cultures. […] Variances of DELTA values were expressed as standard deviations in log10 units. Comparison of DELTA values was made using Pearson correlation coefficients. Resistance factors were defined as the ratios of IC50 values between the resistant line and the parent line. Statistical evaluation was performed either with NCI programmes, with RS/1 software (BBN Research Systems, Cambridge, MA, USA), or with Sigmaplot (Jandel Scientific, San Rafael, CA, USA).
DACA was also compared in a series of 12 primary melanoma cultures. Tissue was excised from human malignant melanomas and cultured using a modified 96-well assay system in which the cells were cultured on agarose and assayed for proliferation using the ^3H-thymidine incorporation assay as described in Marshall E.S., et al., J. Natl. Cancer Inst. 1992, 84, 341-344.

[5] = Pharmacokinetic and tissue distribution studies (tritium label, HPLC); assay type: in vivo; settings: for tissue concentration: 1 h after intraperitoneal 400 µmol/kg, HPLC; for AUC: ip, 400 umol/kg, intraperitoneal 400 µmol/kg
Text: We believe that administration of DACA at the new divided dose-high constituent dose frequency regime mentioned above will be helpful in combating brain tumours.

human cell lines = experiment: Cytotoxicity under continuous drug exposure, mean over human cell lines; assay type: cell-based; settings: continuous drug exposure over approx. 5 cell doubling times, read-out: mean IC50 value for human cell lines
Method: as §2

[6] = test system: P388 murine leukaemia (P/ACTD); experiment: Sensitivity of multidrug resistant P388 subline in vivo
Method: as §1

CN(C)CCNC(=O)c1cccc2cc3ccccc3nc12 [DACA, N-[2-(dimethylamino)ethyl]acridine-4-carboxamide]
sensitivity of P/ACTD line [1]: sensitive | cross-resistance of P/ACTD cells [2]: no cross-resistance | IC50 [3]: 90 to 3400 nM | IC50 ([4]; read-out: IC50 values): 200 to 1500 nM | IC50 ([4]; read-out: mean IC50): 590 nM | proportions of cells killed ([4]; human, primary melanoma cultures): > 99% | tissue concentration ([5]; brain): 45 µmol/kg | tissue concentration ([5]; heart): 57 µmol/kg | AUC ([5]; brain, read-out: AUC): 218 µM·h | AUC ([5]; heart, read-out: AUC): 147 µM·h | AUC ([5]; kidney, read-out: AUC): 492 µM·h | AUC ([5]; liver, read-out: AUC): 547 µM·h | AUC ([5]; plasma, read-out: plasma AUC): 26.6 µM·h | tissue concentration ([5]; kidney): 139 µmol/kg | tissue concentration ([5]; liver): 185 µmol/kg | elimination t1/2 ([5]; tritium-labelled DACA, tissues including brain): 37 to 176 h | IC50 (human cell lines): 1300 nM | sensitivity of P/ACTD line [6]: sensitive
